According to US11844846B2, “Styrylbenzothiazole derivatives and uses in imaging methods” (Emory University, priority 2018, dated 2023):
Where “and” joins values, the source holds several entries; their conditions need not be identical. Equal entries are not always repeated. Entries after “also recorded” stand apart in the source; their conditions may differ. Where two headings read alike, the source gives them in different places. One block for each molecule: values may come before it.

Columns and labels:
α-Syn PFFs = α-Syn PFFs (Homo sapiens, UniProt P37840); assay: fluorescence spectroscopy titration with α-Syn PFFs; assay type: binding; details: for binding to α-Syn PFFs by fluorescent emission intensity: 0.08 μM fibrils, 5 μM small molecule, result in words
Experimental: (§1) A fluorescent titration assay was conducted. The fluorescent emission intensities were determined with 0.08 μM of various fibrils in the presence of 5 μM of the small molecules.
(§2) To further investigate the selected compounds binding activities with α-Syn PFFs, fluorescence spectroscopy titrations were conducted to quantitatively measure compounds emission intensity when interacting with different concentrations of α-Syn PFFs. The UV spectrum of each compound was determined and selected for the optimal wavelength to conduct the fluorescence spectroscopic studies.

Aβ PFFs [1] = molecular target: T1, Aβ PFFs (Homo sapiens, UniProt P05067); assay: fluorescence spectroscopy titration with Aβ PFFs; assay type: binding; details: fluorescence spectroscopy titration; read-out: binding constant Kd for Aβ PFFs
T1 construct: counter-screening with Tau and Aβ PFFs
Experimental: as §1, §2

Tau PFFs [2] = molecular target: T2, Tau PFFs (Homo sapiens, UniProt P10636); assay: fluorescence spectroscopy titration with Tau PFFs; assay type: binding; details: fluorescence spectroscopy titration; read-out: binding constant Kd for Tau PFFs
Experimental: as §1, §2

α-Syn aggregated neurons = assay: neuronal α-Syn aggregation model, fluorescent microscopy; assay type: cell-based; details: primary cultured neurons, AAV-α-Syn plus α-Syn PFFs
Description: (§3) A series of derivatives were synthesized by including an amino group and a methyl group on benzothiazole to increase the brain permeability and fluorescent signals. The derivatives were subsequently subjected to α-Syn PFFs binding assay and counter-screening with Tau and Aβ PFFs. […] These compounds were screened on the neuronal α-Syn, Tau and Aβ aggregation model for the binding selectivity. Primary cultured neurons were infected with AAV-α-Syn, AAV-Tau FL for 7 days, then treated with α-Syn, Tau or Aβ PFFs. In a few days, the positive compounds were added in the primary neurons with indicated aggregates and analyzed under fluorescent microscopy.
(§4) Primary cultured neurons were infected with AAV-α-Syn, AAV-Tau FL or AAV-APP fragment virus for 7 days, and then treated with α-Syn, Tau or Aβ PFFs by following the described protocols (Volpicelli-Daley et al., 2014). In a few days, the positive compounds were added in the primary neurons with indicated aggregation.

[3] = system: neurons with Aβ or Tau aggregates; assay: neuronal Aβ and Tau aggregation models, fluorescent microscopy; assay type: cell-based; details: primary cultured neurons
Description: as §3, §4

[4] = molecular target: T3, Lewy bodies in α-Syn A53T virus injected WT mice brain slices (Homo sapiens, UniProt P37840, A53T); assay: staining of mouse brain slices with Lewy bodies; assay type: binding
T3 construct: from tissue; host or cells: brain (substantia nigra) of wild-type mice injected with α-Syn A53T virus
Experimental: (§5) To further explore whether the positive compounds selectively bind to the Lewy bodies, α-Syn A53T patient-derived mutant virus injected WT mice brain slices were employed. These mice display extensive Lewy bodies in the SN.
(§6) To further explore whether the positive compounds selectively bind to the Lewy bodies, a α-Syn A53T patient-derived mutant virus was injected into WT mice brain slices. These mice display extensive Lewy bodies in the Substantial nigra (SN). Moreover, P301S mice expressed neurofibrillary tangles (NFT). The Lewy bodies were labeled with p-α-Syn S129 antibody and the positive aggregates were also labeled with the fluorescent signals from the small molecules. […] However, it was worth noting that almost none of the tested compounds were reactive with NFT.

[5] = molecular target: T4, senile plaques in 5×FAD and 3×Tg mice brain sections (Homo sapiens, UniProt P05067); assay: staining of mouse brain sections with senile plaques; assay type: binding
T4 construct: Aβ-enriched senile plaques; from tissue; host or cells: brain sections of 5×FAD and 3×Tg mice

[6] = system: NFT in Tau P301S and 3×Tg mice brain sections; assay: staining of mouse brain sections with NFT; assay type: binding
Experimental: as §5, §6

[7] = molecular target: T5, LBs and LNs in DLB and MSA patient brains (Homo sapiens, UniProt P37840); assay: ex vivo screening on DLB and MSA patient brain sections; assay type: binding
T5 construct: from tissue; host or cells: brain sections of DLB and MSA patients
Description: (§7) Ex vivo screening was extended into human DLB, MSA and AD patient samples. […] Since there are detectable α-Syn aggregates in AD patient brains, these compounds colocalized with p-S129 positive α-Syn inclusions.
(§8) The ex vivo screening was extended into human DLB, MSA and AD patient samples. Neurodegenerative disease of DLB (dementia with Lewy Bodies) and MSA belongs to synucleinopathies with well-defined Lewy bodies.

[8] = system: senile plaques or NFT in AD; assay: ex vivo screening on AD patient brain sections; assay type: binding, human
Description: as §7, §8

[9] = plasma-brain ratio study / in vivo PK of EU compounds; parameters: species or system mouse; details: for B/P: single animals; for brain permeability: i.v.
Experimental: To address whether the selected compounds penetrate the brain, a plasma-brain ratio study was performed with EU04-03A, EU05-02A and EU05-02B.
To test whether these compounds are brain permeable in vivo, in vivo PK profiling was conducted to determine brain exposure.

[10] = molecular target: pre-formed fibrils (PFFs) of α-Synuclein (Homo sapiens, UniProt P37840); assay: in vitro binding assay with α-Syn PFFs; details: fibrils binding assay, result in words
Description: (§9) The general strategy that was employed to screen the candidate Lewy body PET agents is summarized as follows: (a) To perform in vitro binding assay with Pre-formed fibrils (PFFs) of α-Syn and counter-screening with Tau and Aβ PFFs; (b) To test the positive compounds in the neuronal models with aggregated α-Syn, Tau or […]; (c) To screen with the brain slides from α-Syn mutant A53T virus injected WT mice, and counter-screen with aged 3×Tg (containing both senile plaques and NFT), and aged Tau P301S (NFT) brain sections; (d) to screen the patient brain sections from DLB and MSA against AD; (e) To determine the binding kinetics between α-Syn PFFs and positive hits; (f) To determine the candidates in vivo brain/plasma (B/P) ratios and the brain permeability; (g) To determine the in vivo PET images in α-Syn A53T with candidates and compare its images in 5XFAD and Tau P301S mice.
(§10) To perform in vitro binding assay, commercial compounds were screened (See FIG. 7B).
as §3
To perform in vitro binding assay, compounds were screened. […] An amino group and a methyl group in the benzothazole were added to increase its brain permeability and fluorescent signals. […] The synthesized derivatives were subsequently subjected to the α-Syn PFFs binding and counter-screen of Tau and Aβ PFFs as described above.

Aβ PFFs [11] = molecular target: T1, Aβ PFFs; assay: counter-screening with Aβ PFFs; assay type: binding; details: result in words
Description: as §9, §10
(§11) A series of derivatives were synthesized by including an amino group and a methyl group on benzothiazole to increase the brain permeability and fluorescent signals. The derivatives were subsequently subjected to α-Syn PFFs binding assay and counter-screening with Tau and Aβ PFFs. […] In a few days, the positive compounds were added in the primary neurons with indicated aggregates and analyzed under fluorescent microscopy. […]

Tau PFFs [12] = molecular target: T2, Tau PFFs; assay: counter-screening with Tau PFFs; assay type: binding; details: result in words
Description: as §9, §10, §11

[13] = in vivo PK study of compound 13 decaying into F0502B; details: after injection of compound 13, 15 min to 90 min

T1 sequence (P05067 672-713 limits assumed): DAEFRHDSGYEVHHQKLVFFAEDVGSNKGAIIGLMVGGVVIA
T2 sequence (P10636 whole entry): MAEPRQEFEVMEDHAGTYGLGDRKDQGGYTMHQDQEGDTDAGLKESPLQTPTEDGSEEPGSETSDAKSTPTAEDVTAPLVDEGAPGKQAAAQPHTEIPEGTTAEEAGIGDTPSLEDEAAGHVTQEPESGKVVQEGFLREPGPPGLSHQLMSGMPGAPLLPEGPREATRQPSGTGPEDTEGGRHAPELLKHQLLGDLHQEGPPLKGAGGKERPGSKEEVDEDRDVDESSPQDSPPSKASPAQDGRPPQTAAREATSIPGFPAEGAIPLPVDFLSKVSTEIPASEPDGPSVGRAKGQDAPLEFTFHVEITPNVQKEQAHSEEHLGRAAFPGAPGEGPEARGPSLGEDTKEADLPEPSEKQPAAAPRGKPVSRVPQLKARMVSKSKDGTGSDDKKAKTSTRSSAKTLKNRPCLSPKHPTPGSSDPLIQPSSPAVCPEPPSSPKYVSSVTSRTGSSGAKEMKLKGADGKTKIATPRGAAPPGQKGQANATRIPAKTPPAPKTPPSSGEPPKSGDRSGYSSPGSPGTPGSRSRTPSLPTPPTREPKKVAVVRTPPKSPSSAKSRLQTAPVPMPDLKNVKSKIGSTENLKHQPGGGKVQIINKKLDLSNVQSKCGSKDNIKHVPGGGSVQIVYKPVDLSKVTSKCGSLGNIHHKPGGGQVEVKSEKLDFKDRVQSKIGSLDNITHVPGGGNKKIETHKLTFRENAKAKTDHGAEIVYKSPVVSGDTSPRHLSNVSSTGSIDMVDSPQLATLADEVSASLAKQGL
T4 sequence (P05067 672-713 limits assumed): as the sequence (P05067 672-713 limits assumed) above

Structure (SMILES): Cc1cc2nc(/C=C/c3ccc(O)c(Br)c3)sc2cc1N(C)C [EU-005-02B, (E)-2-bromo-4-(2-(6-(dimethylamino)-5-methylbenzo[d]thiazol-2-yl)vinyl)phenol]
binding to α-Syn PFFs by fluorescent emission intensity (α-Syn PFFs): stronger binding affinity toward α-Syn PFFs versus Tau and Aβ PFFs; also recorded: dose-dependent escalation of the emission intensities
binding to α-Syn PFFs by fluorescent emission intensity (α-Syn PFFs; listed as EU05-02B): partial binding selectivity toward α-Syn PFFs versus Aβ and Tau fibrils
binding to α-Syn PFFs by fluorescent emission intensity (α-Syn PFFs; listed as EU-05-02B): showed specific association with the PFFs
Kd (α-Syn PFFs; fluorescence spectroscopy titration, read-out: binding constant Kd for α-Syn PFFs): 170 nM
Kd (Aβ PFFs [1]): 850 nM
Kd (Tau PFFs [2]): 3700 nM
fluorescent signal in α-Syn aggregated neurons (α-Syn aggregated neurons): positive for selective binding
fluorescent signal in α-Syn aggregated neurons (α-Syn aggregated neurons; listed as EU05-02B): positive signals in α-Syn aggregated neurons
fluorescent signal in neurons with Aβ or Tau aggregates [3]: negligible effects in neurons with Aβ or Tau aggregates
staining of Lewy bodies (p-α-Syn S129 positive) [4]: concrete aggregates were also stained with the fluorescent signals from EU05-02B
staining of senile plaques [5]: barely recognized senile plaques or NFT
staining of NFT [6]: barely recognized senile plaques or NFT
staining of LBs and LNs [7]: robust signals with LBs and LNs
staining of LBs and LNs ([7]; listed as EU05-02B): robust signals with LBs and LNs in DLB and MSA patient brains
staining of senile plaques or NFT (Aβ, AT8 positive aggregates) [8]: barely co-stained with anti-AD or AT8 positive aggregate signals
staining of senile plaques or NFT (Aβ, AT8 positive aggregates) ([8]; listed as EU05-02B): did not stain senile plaques or NFT in AD
B/P ([9]; Male ICH Mouse, 5 mg/kg IV, 0.50 h, 5 mg/kg): 2.00 and 2.47 and 1.16
B/P ([9]; Male ICH Mouse, 5 mg/kg IV, 1.00 h, 5 mg/kg): 2.72 and 6.12 and 4.48
B/P ([9]; Male ICH Mouse, 5 mg/kg IV, 2.00 h, 5 mg/kg): 5.13 and 13.88 and 25.06
B/P ([9]; Male ICH Mouse, 5 mg/kg IV, 4.00 h, 5 mg/kg): 29.74 and 5.63 and 21.06
B/P ([9]; Male ICH Mouse, 5 mg/kg IV, 8.00 h, 5 mg/kg): 57.33 and 78.00 and 36.00
Kp at 0.5 h ([9]; male, ICH, mouse, brain, iv, 5 mg/kg, Male ICH Mouse, 5 mg/kg IV, 0.50 h, read-out: B/P Mean): 1.88
Kp at 1 h ([9]; male, ICH, mouse, brain, iv, 5 mg/kg, Male ICH Mouse, 5 mg/kg IV, 1.00 h, read-out: B/P Mean): 4.44
Kp at 2 h ([9]; male, ICH, mouse, brain, iv, 5 mg/kg, Male ICH Mouse, 5 mg/kg IV, 2.00 h, read-out: B/P Mean): 14.7
Kp at 4 h ([9]; male, ICH, mouse, brain, iv, 5 mg/kg, Male ICH Mouse, 5 mg/kg IV, 4.00 h, read-out: B/P Mean): 18.8
Kp at 8 h ([9]; male, ICH, mouse, brain, iv, 5 mg/kg, Male ICH Mouse, 5 mg/kg IV, 8.00 h, read-out: B/P Mean): 57.1
in vivo half-life / decay ([9]; mice, i.v. 5 mg/kg, result in words): long in vivo half-life
brain permeability ([9]; mice, result in words): time-dependent escalation of B/P ratios; also recorded: brain permeability is much higher as compared to EU-005-02A
brain permeability ([9]; mice, result in words, listed as EU05-02B): swiftly penetrated the brain and exhibited much higher brain permeability compared to EU05-02A

binding toward Tau PFFs (Tau PFFs [12]): not Tau fibrils
Structure (SMILES): COc1ccc(/C=C/c2nc3cc(C)c(N(C)CCOCCF)cc3s2)cc1Br [compound 8, (E)-2-(3-bromo-4-methoxystyryl)-N-(2-(2-fluoroethoxy)ethyl)-N,5-dimethylbenzo[d]thiazol-6-amine]
binding activity toward α-Syn PFFs [10]: somehow interacted with both α-Syn and Aβ
binding toward Aβ PFFs (Aβ PFFs [11]): somehow interacted with both α-Syn and Aβ

Structure (SMILES): Cc1cc2nc(/C=C/c3ccc(OC(=O)N(C)C)c(Br)c3)sc2cc1N(C)CCOCCF [compound 13, (E)-2-bromo-4-(2-(6-((2-(2-fluoroethoxy)ethyl)(methyl)amino)-5-methylbenzo[d]thiazol-2-yl)vinyl)phenyl dimethylcarbamate]
binding activity toward α-Syn PFFs [10]: did not specifically interact with α-Syn, Aβ or Tau aggregates
binding toward Aβ PFFs (Aβ PFFs [11]): did not specifically interact with α-Syn, Aβ or Tau aggregates
binding toward Tau PFFs (Tau PFFs [12]): did not specifically interact with α-Syn, Aβ or Tau aggregates
plasma concentration course [13]: decreased in the plasma
